Test results published in patent US8791102B2, “Acetanilide sphingosine-1-phosphate receptor antagonists” (Exelixis, Inc., priority 2008, dated 2014).

What follows are compounds tested against T1, human S1P1 receptors (Homo sapiens, UniProt P21453) (assay: S1P1R antagonist assay (fluorescent membrane potential dye, cAMP readout)). Conditions: HEK293 cells expressing human S1P1 receptors and CNG channel; 500 nM NECA; S1P1R agonist 10 nM; 90 minutes; read-out: EC50 or IC50 value.
T1 construct: host or cells: HEK293
Format: cell-based

T1 sequence (P21453 whole entry): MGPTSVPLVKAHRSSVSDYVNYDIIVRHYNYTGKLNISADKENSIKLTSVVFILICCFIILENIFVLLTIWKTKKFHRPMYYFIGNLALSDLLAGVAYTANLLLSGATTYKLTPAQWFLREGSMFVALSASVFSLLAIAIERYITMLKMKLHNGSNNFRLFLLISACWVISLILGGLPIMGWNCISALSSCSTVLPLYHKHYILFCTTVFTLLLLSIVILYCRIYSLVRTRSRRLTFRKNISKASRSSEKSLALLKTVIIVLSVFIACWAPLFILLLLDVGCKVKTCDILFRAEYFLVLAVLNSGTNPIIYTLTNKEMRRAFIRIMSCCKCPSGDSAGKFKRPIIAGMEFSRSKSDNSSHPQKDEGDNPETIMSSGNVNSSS

IC50 [µM]	SMILES
0.3 to 1	O=C(Nc1ccc(Oc2ccc(F)cc2)cc1)[C@@H]1CN(C(=O)OCc2ccccc2)CCN1C(=O)Cc1c[nH]cn1 [Compound 257, (S)-benzyl 4-(2-(1H-imidazol-4-yl)acetyl)-3-(4-(4-fluorophenoxy)phenylcarbamoyl)piperazine-1-carboxylate]
≤ 0.3	Cc1n[nH]c(C)c1CC(=O)N[C@@H](COCc1ccc(F)cc1)C(=O)Nc1ccc(Oc2ccc(F)cc2)cc1 [Compound 258, (S)-2-(2-(3,5-dimethyl-1H-pyrazol-4-yl)acetamido)-3-(4-fluorobenzyloxy)-N-(4-(4-fluorophenoxy)phenyl)propanamide]
0.3 to 1	O=C(Nc1ccc(Oc2ccc(F)cc2)cc1)[C@@H]1C[C@@H](Oc2ccccc2)CN1C(=O)Cn1cncn1 [Compound 259, (2S,4R)-1-(2-(1H-1,2,4-triazol-1-yl)acetyl)-N-(4-(4-fluorophenoxy)phenyl)-4-phenoxypyrrolidine-2-carboxamide]
0.3 to 1	O=C(Nc1ccc(Oc2ccc(F)cc2)cc1)[C@@H]1C[C@@H](N2Cc3ccccc3C2)CN1C(=O)Cn1cncn1 [Compound 260, (2S,4R)-1-(2-(1H-1,2,4-triazol-1-yl)acetyl)-N-(4-(4-fluorophenoxy)phenyl)-4-(isoindolin-2-yl)pyrrolidine-2-carboxamide]
0.3 to 1	O=C(Nc1ccc(Oc2ccc(F)cc2)cc1)[C@@H]1CN(Cc2ccccc2)CCN1C(=O)Cn1cncn1 [Compound 261, (S)-1-(2-(1H-1,2,4-triazol-1-yl)acetyl)-4-benzyl-N-(4-(4-fluorophenoxy)phenyl)piperazine-2-carboxamide]
0.3 to 1	O=C(Nc1ccc(Oc2ccc(F)cc2)cc1)[C@@H]1C[C@@H](CNCc2ccccc2)CN1C(=O)Cn1cncn1 [Compound 262, (2S,4S)-1-(2-(1H-1,2,4-triazol-1-yl)acetyl)-4-((benzylamino)methyl)-N-(4-(4-fluorophenoxy)phenyl)pyrrolidine-2-carboxamide]
≤ 0.3	O=C(Nc1ccc(Oc2ccc(F)cc2)cc1)[C@@H]1C[C@@H](Cc2cccc(Cl)c2)CN1C(=O)Cn1ccnn1 [Compound 263, (2S,4R)-1-(2-(1H-1,2,3-triazol-1-yl)acetyl)-4-(3-chlorobenzyl)-N-(4-(4-fluorophenoxy)phenyl)pyrrolidine-2-carboxamide]
≤ 0.3	O=C(Nc1ccc(Oc2ccc(F)cc2)cc1)[C@@H]1C[C@@H](Cc2ccccc2F)CN1C(=O)Cn1ccnn1 [Compound 264, (2S,4R)-1-(2-(1H-1,2,3-triazol-1-yl)acetyl)-4-(2-fluorobenzyl)-N-(4-(4-fluorophenoxy)phenyl)pyrrolidine-2-carboxamide]
≤ 0.3	CC1CN(CC(=O)N[C@@H](COCc2ccccc2)C(=O)Nc2ccc(Oc3ccc(F)cc3)cc2)CC(C)O1 (stereo partly drawn) [Compound 265, (2S)-3-(benzyloxy)-2-(2-(2,6-dimethylmorpholino)acetamido)-N-(4-(4-fluorophenoxy)phenyl)propanamide]
0.3 to 1	O=C(CN1CCSCC1)N[C@@H](COCc1ccccc1)C(=O)Nc1ccc(Oc2ccc(F)cc2)cc1 [Compound 266, (S)-3-(benzyloxy)-N-(4-(4-fluorophenoxy)phenyl)-2-(2-thiomorpholinoacetamido)propanamide]
≤ 0.3	O=C(Nc1ccc(Oc2ccc(F)cc2)cc1)[C@@H]1C[C@@H](Cc2ccc(F)cc2F)CN1C(=O)Cn1ccnn1 [Compound 267, (2S,4R)-1-(2-(1H-1,2,3-triazol-1-yl)acetyl)-4-(2,4-difluorobenzyl)-N-(4-(4-fluorophenoxy)phenyl)pyrrolidine-2-carboxamide]
≤ 0.3	O=C(Nc1ccc(Oc2ccc(F)cc2)cc1)[C@@H]1C[C@@H](Cc2cccc(Cl)c2)CN1C(=O)Cn1nccn1 [Compound 268, (2S,4R)-1-(2-(2H-1,2,3-triazol-2-yl)acetyl)-4-(3-chlorobenzyl)-N-(4-(4-fluorophenoxy)phenyl)pyrrolidine-2-carboxamide]
0.3 to 1	CC(=O)NC(COCc1ccccc1)C(=O)Nc1ccc(Oc2ccccc2)cc1 (stereo not shown) [Compound 269, N-(2-oxo-1-{[(phenylmethyl)oxy]methyl}-2-{[4-(phenyloxy)phenyl]amino}ethyl)acetamide]
> 1	COc1ccc(C(=O)NC(COCc2ccccc2)C(=O)Nc2ccc(Oc3ccccc3)cc2)cc1 (stereo not shown) [Compound 270, 4-(methyloxy)-N-(2-oxo-1-{[(phenylmethyl)oxy]methyl}-2-{[4-(phenyloxy)phenyl]amino}ethyl)benzamide]
> 1	O=C(Cc1ccc(OCc2ccccc2)cc1)NC(COCc1ccccc1)C(=O)Nc1ccc(Oc2ccccc2)cc1 (stereo not shown) [Compound 271, 4-benzyloxy-N-(2-oxo-1-{[(phenylmethyl)oxy]methyl}-2-{[4-(phenyloxy)phenyl]amino}ethyl)phenylacetamide]
> 1	COc1ccc(Br)c(C(=O)NC(COCc2ccccc2)C(=O)Nc2ccc(Oc3ccccc3)cc2)c1 (stereo not shown) [Compound 272, 2-bromo-5-(methyloxy)-N-(2-oxo-1-{[(phenylmethyl)oxy]methyl}-2-{[4-(phenyloxy)phenyl]amino}ethyl)benzamide]
> 1	CCCC(=O)NC(COCc1ccccc1)C(=O)Nc1ccc(Oc2ccccc2)cc1 (stereo not shown) [Compound 273, N-(2-oxo-1-{[(phenylmethyl)oxy]methyl}-2-{[4-(phenyloxy)phenyl]amino}ethyl)butanamide]

IC50 [µM]	SMILES
> 1	O=C(NC(COCc1ccccc1)C(=O)Nc1ccc(Oc2ccccc2)cc1)c1ccccc1Cl (stereo not shown) [Compound 274, 2-chloro-N-(2-oxo-1-{[(phenylmethyl)oxy]methyl}-2-{[4-(phenyloxy)phenyl]amino}ethyl)benzamide]
> 1	O=C(NC(COCc1ccccc1)C(=O)Nc1ccc(Oc2ccccc2)cc1)c1cccc(Cl)c1 (stereo not shown) [Compound 275, 3-chloro-N-(2-oxo-1-{[(phenylmethyl)oxy]methyl}-2-{[4-(phenyloxy)phenyl]amino}ethyl)benzamide]
> 1	O=C(NC(COCc1ccccc1)C(=O)Nc1ccc(Oc2ccccc2)cc1)c1ccc(Cl)cc1 (stereo not shown) [Compound 276, 4-chloro-N-(2-oxo-1-{[(phenylmethyl)oxy]methyl}-2-{[4-(phenyloxy)phenyl]amino}ethyl)benzamide]
≤ 0.3	O=C(NC(COCc1ccccc1)C(=O)Nc1ccc(Oc2ccccc2)cc1)C1CC1 (stereo not shown) [Compound 277, N-(2-oxo-1-{[(phenylmethyl)oxy]methyl}-2-{[4-(phenyloxy)phenyl]amino}ethyl)cyclopropylamide]
> 1	O=C(CCC1CCCC1)NC(COCc1ccccc1)C(=O)Nc1ccc(Oc2ccccc2)cc1 (stereo not shown) [Compound 278, N-(2-oxo-1-{[(phenylmethyl)oxy]methyl}-2-{[4-(phenyloxy)phenyl]amino}ethyl)-3-cyclopentylpropanamide]
> 1	Cc1ccc(C(=O)NC(COCc2ccccc2)C(=O)Nc2ccc(Oc3ccccc3)cc2)cc1C (stereo not shown) [Compound 279, 3,4-dimethyl-N-(2-oxo-1-{[(phenylmethyl)oxy]methyl}-2-{[4-(phenyloxy)phenyl]amino}ethyl)benzamide]
> 1	COc1ccc(OC)c(CC(=O)NC(COCc2ccccc2)C(=O)Nc2ccc(Oc3ccccc3)cc2)c1 (stereo not shown) [Compound 280, N-(2-oxo-1-{[(phenylmethyl)oxy]methyl}-2-{[4-(phenyloxy)phenyl]amino}ethyl)-2,5-dimethoxyphenylacetamide]
> 1	CCOc1ccc(C(=O)NC(COCc2ccccc2)C(=O)Nc2ccc(Oc3ccccc3)cc2)cc1 (stereo not shown) [Compound 281, 4-(ethyloxy)-N-(2-oxo-1-{[(phenylmethyl)oxy]methyl}-2-{[4-(phenyloxy)phenyl]amino}ethyl)benzamide]
> 1	CCCCC(CC)C(=O)NC(COCc1ccccc1)C(=O)Nc1ccc(Oc2ccccc2)cc1 (stereo not shown) [Compound 282, N-(3-(benzyloxy)-1-oxo-1-(4-phenoxyphenylamino)propan-2-yl)-2-ethylhexanamide]
> 1	O=C(NC(COCc1ccccc1)C(=O)Nc1ccc(Oc2ccccc2)cc1)c1ccco1 (stereo not shown) [Compound 283, N-(2-oxo-1-{[(phenylmethyl)oxy]methyl}-2-{[4-(phenyloxy)phenyl]amino}ethyl)furan-2-carboxamide]
> 1	COCC(=O)NC(COCc1ccccc1)C(=O)Nc1ccc(Oc2ccccc2)cc1 (stereo not shown) [Compound 284, N-(2-oxo-1-{[(phenylmethyl)oxy]methyl}-2-{[4-(phenyloxy)phenyl]amino}ethyl)-2-methoxyacetamide]
> 1	COc1cccc(CC(=O)NC(COCc2ccccc2)C(=O)Nc2ccc(Oc3ccccc3)cc2)c1 (stereo not shown) [Compound 285, N-(2-oxo-1-{[(phenylmethyl)oxy]methyl}-2-{[4-(phenyloxy)phenyl]amino}ethyl)-3-methoxyphenylacetamide]
> 1	CCCC(C)C(=O)NC(COCc1ccccc1)C(=O)Nc1ccc(Oc2ccccc2)cc1 (stereo not shown) [Compound 286, 2-methyl-N-(2-oxo-1-{[(phenylmethyl)oxy]methyl}-2-{[4-(phenyloxy)phenyl]amino}ethyl)pentanamide]
> 1	CC(C)CCC(=O)NC(COCc1ccccc1)C(=O)Nc1ccc(Oc2ccccc2)cc1 (stereo not shown) [Compound 287, 4-methyl-N-(2-oxo-1-{[(phenylmethyl)oxy]methyl}-2-{[4-(phenyloxy)phenyl]amino}ethyl)pentanamide]
> 1	O=C(NC(COCc1ccccc1)C(=O)Nc1ccc(Oc2ccccc2)cc1)c1ccc2ccccc2c1 (stereo not shown) [Compound 288, N-(2-oxo-1-{[(phenylmethyl)oxy]methyl}-2-{[4-(phenyloxy)phenyl]amino}ethyl)naphthalene-2-carboxamide]
> 1	O=C(COc1ccccc1)NC(COCc1ccccc1)C(=O)Nc1ccc(Oc2ccccc2)cc1 (stereo not shown) [Compound 289, N-(2-oxo-1-{[(phenylmethyl)oxy]methyl}-2-{[4-(phenyloxy)phenyl]amino}ethyl)phenoxyacetamide]
> 1	O=C(NC(COCc1ccccc1)C(=O)Nc1ccc(Oc2ccccc2)cc1)c1cccnc1Oc1ccccc1 (stereo not shown) [Compound 290, N-(2-oxo-1-{[(phenylmethyl)oxy]methyl}-2-{[4-(phenyloxy)phenyl]amino}ethyl)-2-(phenyloxy)pyridine-3-carboxamide]
